# Results published in ChEMBL document CHEMBL3885861, “Open TG-GATES”.
# Organism: Rattus norvegicus
# Test: Open TG-GATES - Regimen: Single
# Assay type: toxicity, organism-based, Sprague-Dawley
# Parameters: regimen Single, gender Male, age 6 weeks
# Settings: in vivo, po, route gavage; for APTT / Bas / Eos / Fbg / Hb / Ht / Lym / MCH / MCHC / MCV / Mono / Neu / PT / Plat / Ret / WBC: tissue Blood; for KIDNEY_L / KIDNEY_R / KIDNEY_TOTAL: tissue Kidney; for LIVER: tissue Liver; for ALP / ALT / AST / BUN / CRE / Ca / DBIL / GLC / IP / K / LDH / Na / PL / RALB / TBIL / TC / TG / TP / gamma-GTP: tissue Plasma
# [1] = 30 mg/kg, 3 h, dose level Middle
# [2] = 30 mg/kg, 6 h, dose level Middle
# [3] = 30 mg/kg, 9 h, dose level Middle
# [4] = 30 mg/kg, 24 h, dose level Middle
# [5] = 100 mg/kg, 3 h, dose level High
# [6] = 100 mg/kg, 6 h, dose level High
# [7] = 100 mg/kg, 9 h, dose level High
# [8] = 100 mg/kg, 24 h, dose level High
smiles,measurement,setting,value
CN(C)CCCN1c2ccccc2CCc2ccc(Cl)cc21 [CLOMIPRAMINE],APTT,[1],16.4 s
same,Bas,[1],0.2%
same,Eos,[1],0.6%
same,Fbg,[1],254 mg/dL
same,Hb,[1],14.2 g/dL
same,Ht,[1],43.6%
same,Lym,[1],71.2%
same,MCH,[1],21 pg
same,MCHC,[1],32.6%
same,MCV,[1],64.5 fL
same,Mono,[1],2.8%
same,Neu,[1],24%
same,PT,[1],13.6 s
same,Plat,[1],115.5 x10_4/uL
same,Ret,[1],7.9%
same,WBC,[1],95.4 x10_2/uL
same,KIDNEY_L,[1],1 g
same,KIDNEY_R,[1],1 g
same,KIDNEY_TOTAL,[1],1.9 g
same,LIVER,[1],9.7 g
same,ALP,[1],1675.2 IU/L
same,ALT,[1],38.4 IU/L
same,AST,[1],77.8 IU/L
same,BUN,[1],9.8 mg/dL
same,CRE,[1],0.2 mg/dL
same,Ca,[1],10.8 mg/dL
same,DBIL,[1],0.016 mg/dL
same,GLC,[1],187.8 mg/dL
same,IP,[1],9.6 mg/dL
same,K,[1],4 meq/L
same,LDH,[1],96 IU/L
same,Na,[1],141 meq/L
same,PL,[1],145.4 mg/dL
same,RALB,[1],2.5 g/dL
same,TBIL,[1],0.062 mg/dL
same,TC,[1],75.2 mg/dL
same,TG,[1],78.8 mg/dL
same,TP,[1],5.2 g/dL
same,gamma-GTP,[1],1 IU/L
same,TERMINAL_BW,[2],214.2 g
same,APTT,[2],15.9 s
same,Bas,[2],0.2%
same,Eos,[2],0.8%
same,Fbg,[2],241.2 mg/dL
same,Hb,[2],14.1 g/dL
same,Ht,[2],43.9%
same,Lym,[2],78.2%
same,MCH,[2],20.2 pg
same,MCHC,[2],32.2%
same,MCV,[2],62.8 fL
same,Mono,[2],2.6%
same,Neu,[2],17.2%
same,PT,[2],13.7 s
same,Plat,[2],114.1 x10_4/uL
same,Ret,[2],7.6%
same,WBC,[2],82.3 x10_2/uL
same,KIDNEY_L,[2],1 g
same,KIDNEY_R,[2],1 g
same,KIDNEY_TOTAL,[2],2 g
same,LIVER,[2],9.2 g
same,ALP,[2],1672.6 IU/L
same,ALT,[2],39.2 IU/L
same,AST,[2],73.8 IU/L
same,BUN,[2],7.2 mg/dL
same,CRE,[2],0.2 mg/dL
same,DBIL,[2],0.02 mg/dL
same,GLC,[2],186.4 mg/dL
same,IP,[2],9.9 mg/dL
same,K,[2],4.2 meq/L
same,LDH,[2],75.4 IU/L
same,Na,[2],141.4 meq/L
same,PL,[2],134.6 mg/dL
same,RALB,[2],2.5 g/dL
same,TBIL,[2],0.068 mg/dL
same,TC,[2],74.4 mg/dL
same,TG,[2],55.8 mg/dL
same,TP,[2],5.3 g/dL
same,gamma-GTP,[2],1.2 IU/L
same,TERMINAL_BW,[3],211.3 g
same,APTT,[3],17.1 s
same,Bas,[3],0%
same,Eos,[3],1.2%
same,Fbg,[3],273.6 mg/dL
same,Hb,[3],13.9 g/dL
same,Ht,[3],42.6%
same,Lym,[3],77.8%
same,MCH,[3],20.4 pg
same,MCHC,[3],32.6%
same,MCV,[3],62.6 fL
same,Mono,[3],2.2%
same,Neu,[3],17.8%
same,PT,[3],13.8 s
same,Plat,[3],124.6 x10_4/uL
same,Ret,[3],7.7%
same,WBC,[3],83.2 x10_2/uL
same,KIDNEY_L,[3],1 g
same,KIDNEY_R,[3],0.9 g
same,KIDNEY_TOTAL,[3],1.9 g
same,LIVER,[3],8.5 g
same,ALP,[3],1468.8 IU/L
same,ALT,[3],36.2 IU/L
same,AST,[3],71.8 IU/L
same,BUN,[3],7.4 mg/dL
same,CRE,[3],0.2 mg/dL
same,Ca,[3],10.5 mg/dL
same,DBIL,[3],0.024 mg/dL
same,GLC,[3],174 mg/dL
same,IP,[3],10.5 mg/dL
same,K,[3],4.1 meq/L
same,LDH,[3],86.4 IU/L
same,Na,[3],140.6 meq/L
same,PL,[3],143 mg/dL
same,RALB,[3],2.6 g/dL
same,TBIL,[3],0.076 mg/dL
same,TC,[3],83.4 mg/dL
same,TG,[3],34.2 mg/dL
same,TP,[3],5.4 g/dL
same,gamma-GTP,[3],1 IU/L
same,TERMINAL_BW,[4],231.8 g
same,APTT,[4],16.9 s
same,Bas,[4],0%
same,Eos,[4],0.6%
same,Fbg,[4],247.6 mg/dL
same,Ht,[4],41.2%
same,Lym,[4],81.6%
same,MCH,[4],20.6 pg
same,MCHC,[4],32.3%
same,MCV,[4],63.9 fL
same,Mono,[4],2.6%
same,Neu,[4],14%
same,PT,[4],13.8 s
same,Plat,[4],116.6 x10_4/uL
same,Ret,[4],7.1%
same,WBC,[4],83.8 x10_2/uL
same,KIDNEY_L,[4],1 g
same,KIDNEY_R,[4],1 g
same,KIDNEY_TOTAL,[4],2.1 g
same,LIVER,[4],10.5 g
same,ALP,[4],2253 IU/L
same,ALT,[4],44.2 IU/L
same,AST,[4],76.8 IU/L
same,BUN,[4],13.2 mg/dL
same,CRE,[4],0.2 mg/dL
same,Ca,[4],10.9 mg/dL
same,DBIL,[4],0.028 mg/dL
same,GLC,[4],179 mg/dL
same,IP,[4],8 mg/dL
same,K,[4],4.1 meq/L
same,LDH,[4],93.8 IU/L
same,Na,[4],141.4 meq/L
same,PL,[4],159 mg/dL
same,RALB,[4],2.6 g/dL
same,TBIL,[4],0.062 mg/dL
same,TC,[4],80.2 mg/dL
same,TG,[4],115.2 mg/dL
same,TP,[4],5.5 g/dL
same,gamma-GTP,[4],1.2 IU/L
same,TERMINAL_BW,[5],215.5 g
same,APTT,[5],16.9 s
same,Bas,[5],0%
same,Eos,[5],0.8%
same,Fbg,[5],257.8 mg/dL
same,Hb,[5],14.1 g/dL
same,Ht,[5],43.3%
same,Lym,[5],77.8%
same,MCH,[5],21.2 pg
same,MCHC,[5],32.6%
same,MCV,[5],64.9 fL
same,Mono,[5],3.4%
same,Neu,[5],17.2%
same,PT,[5],13.5 s
same,Plat,[5],125.6 x10_4/uL
same,Ret,[5],8%
same,WBC,[5],69.8 x10_2/uL
same,KIDNEY_L,[5],1 g
same,KIDNEY_R,[5],0.9 g
same,KIDNEY_TOTAL,[5],1.9 g
same,LIVER,[5],10.1 g
same,ALP,[5],1835 IU/L
same,ALT,[5],42.8 IU/L
same,AST,[5],76.6 IU/L
same,BUN,[5],7.4 mg/dL
same,CRE,[5],0.1 mg/dL
same,Ca,[5],10.5 mg/dL
same,DBIL,[5],0.036 mg/dL
same,GLC,[5],188.8 mg/dL
same,IP,[5],9.6 mg/dL
same,K,[5],3.9 meq/L
same,LDH,[5],116.6 IU/L
same,Na,[5],142.2 meq/L
same,PL,[5],147 mg/dL
same,RALB,[5],2.5 g/dL
same,TBIL,[5],0.068 mg/dL
same,TC,[5],73.8 mg/dL
same,TG,[5],85.4 mg/dL
same,TP,[5],5.3 g/dL
same,gamma-GTP,[5],1 IU/L
same,TERMINAL_BW,[6],210.3 g
same,APTT,[6],17.8 s
same,Bas,[6],0%
same,Eos,[6],1%
same,Fbg,[6],276 mg/dL
same,Hb,[6],14.2 g/dL
same,Ht,[6],44%
same,Lym,[6],75.6%
same,MCH,[6],21.3 pg
same,MCHC,[6],32.2%
same,MCV,[6],66.2 fL
same,Mono,[6],2.8%
same,Neu,[6],20%
same,PT,[6],13.9 s
same,Plat,[6],125.1 x10_4/uL
same,Ret,[6],8.2%
same,WBC,[6],69.9 x10_2/uL
same,KIDNEY_L,[6],1 g
same,KIDNEY_R,[6],1 g
same,KIDNEY_TOTAL,[6],2 g
same,LIVER,[6],9.2 g
same,ALP,[6],1949.8 IU/L
same,ALT,[6],40.6 IU/L
same,AST,[6],76.2 IU/L
same,BUN,[6],6.8 mg/dL
same,CRE,[6],0.1 mg/dL
same,Ca,[6],10.4 mg/dL
same,DBIL,[6],0.042 mg/dL
same,GLC,[6],187.4 mg/dL
same,IP,[6],9.7 mg/dL
same,K,[6],4.1 meq/L
same,LDH,[6],103.8 IU/L
same,Na,[6],142.8 meq/L
same,PL,[6],134.6 mg/dL
same,RALB,[6],2.5 g/dL
same,TBIL,[6],0.064 mg/dL
same,TC,[6],71.4 mg/dL
same,TG,[6],53 mg/dL
same,TP,[6],5.2 g/dL
same,gamma-GTP,[6],1 IU/L
same,TERMINAL_BW,[7],208.4 g
same,APTT,[7],16.6 s
same,Bas,[7],0%
same,Eos,[7],1%
same,Fbg,[7],270.4 mg/dL
same,Hb,[7],14.1 g/dL
same,Ht,[7],43.6%
same,Lym,[7],71.2%
same,MCH,[7],21 pg
same,MCHC,[7],32.3%
same,MCV,[7],65.1 fL
same,Mono,[7],2%
same,Neu,[7],25.2%
same,PT,[7],13.9 s
same,Plat,[7],144.8 x10_4/uL
same,Ret,[7],8.1%
same,WBC,[7],72.8 x10_2/uL
same,KIDNEY_L,[7],1 g
same,KIDNEY_R,[7],1 g
same,KIDNEY_TOTAL,[7],2 g
same,LIVER,[7],9 g
same,ALP,[7],1702 IU/L
same,ALT,[7],32.4 IU/L
same,AST,[7],71.2 IU/L
same,BUN,[7],6.4 mg/dL
same,CRE,[7],0.1 mg/dL
same,Ca,[7],10.2 mg/dL
same,DBIL,[7],0.04 mg/dL
same,GLC,[7],194.6 mg/dL
same,IP,[7],9.8 mg/dL
same,K,[7],3.7 meq/L
same,LDH,[7],91 IU/L
same,Na,[7],142.6 meq/L
same,PL,[7],137.4 mg/dL
same,RALB,[7],2.5 g/dL
same,TBIL,[7],0.064 mg/dL
same,TC,[7],72.8 mg/dL
same,TG,[7],39 mg/dL
same,TP,[7],5.2 g/dL
same,gamma-GTP,[7],1 IU/L
same,TERMINAL_BW,[8],217.7 g
same,APTT,[8],19.3 s
same,Bas,[8],0.2%
same,Eos,[8],1%
same,Fbg,[8],278.8 mg/dL
same,Hb,[8],14.1 g/dL
same,Ht,[8],43.4%
same,Lym,[8],78.2%
same,MCH,[8],20.6 pg
same,MCHC,[8],32.5%
same,MCV,[8],63.5 fL
same,Mono,[8],2.6%
same,Neu,[8],17.4%
same,PT,[8],13.5 s
same,Plat,[8],144.2 x10_4/uL
same,Ret,[8],7.4%
same,WBC,[8],91.7 x10_2/uL
same,KIDNEY_L,[8],1 g
same,KIDNEY_R,[8],1 g
same,KIDNEY_TOTAL,[8],2 g
same,LIVER,[8],9.6 g
same,ALP,[8],1855 IU/L
same,ALT,[8],43 IU/L
same,AST,[8],69.8 IU/L
same,BUN,[8],15.4 mg/dL
same,CRE,[8],0.2 mg/dL
same,Ca,[8],10.8 mg/dL
same,DBIL,[8],0.046 mg/dL
same,GLC,[8],180.6 mg/dL
same,IP,[8],8.3 mg/dL
same,K,[8],4 meq/L
same,LDH,[8],92 IU/L
same,Na,[8],141.8 meq/L
same,PL,[8],168.4 mg/dL
same,RALB,[8],2.7 g/dL
same,TBIL,[8],0.056 mg/dL
same,TC,[8],98.2 mg/dL
same,TG,[8],96.2 mg/dL
same,TP,[8],5.7 g/dL
same,gamma-GTP,[8],1 IU/L
